Measured values from patent US20050069517A1, “Hair conditioning compositions” (priority 2003, published 2005).

Assay: Hair penetration by TOF-SIMS imaging of cross sections of treated hair fibers
Type: physicochemical, human
Conditions: bleached dark brown European hair; agent massaged in, 24 hours at approximately 32° C., rinsed 1 minute, air-dried; positive-ion TOF-SIMS images
Method: What is meant by “penetrate” is that the hair conditioning agent is deposited into a region of the hair following application of the conditioning agent to the hair for twenty-four hours. Such analysis of hair penetration is set forth below in Example 8.
Various hair conditioning agents were tested for their ability to penetrate into human hair. Secondary ion mass spectrometry (SIMS) in combination with a time of flight (TOF) mass spectrometer was used to determine hair penetration. Time-Of-Flight Secondary Ion Mass Spectrometry (TOF-SIMS) makes use of the secondary ion mass spectra (of atomic species or low molecular weight fragments), which are formed when the sample surface (e.g., surface of hair fiber cross sections) is bombarded with a positively charged gallium ion beam. The positive and negative ion mass spectra of the sample were obtained by the time-of-flight method. See, e.g., Ruetsch, et al., J. Cosmet. Sci., 52, 169-184 (2001). The Gallium gun, which emits a pulsed primary ion beam (accelerating voltage of 25 kV), was used in the study.
The protocol was as follows. Dark brown European hair obtained from DeMeo Brothers, New York, N.Y. was bleached for 30 minutes with alkaline 6% hydrogen peroxide (adjusted to pH 10.2 with ammonium hydroxide). […]

CCCCCCCCCCCCCCCC(=O)N[C@@H](CO)C(=O)OCCCCCCCCCCCCCC [Palmitoyl Myristyl Serinate]
penetration of hair conditioning agent into hair fiber cross section: not detected in the cross section of treated hair
